Converted amounts (≈) assume the structure as drawn. The source made the active and inactive calls. The rule behind the calls is not given here.
Key:
[1] = Inhibition of influenza A/PR/8/34(H1N1) virus sialidase after 10 mins by fluorometric assay; parameters: species or system Influenza A virus (A/Puerto Rico/8/1934(H1N1))
MDCK = assay: Cytotoxicity in influenza A/PR/8/34 virus infected MDCK cells after 3 days by MTT assay; type: cell-based, Canis lupus familiaris; settings: dog, 72 h
[2] = Inhibition of influenza A/Guizhou/54/89(H3N2) virus sialidase after 10 mins by fluorometric assay; parameters: species or system Influenza A virus (A/Guizhou/54/89(H3N2))
[3] = Inhibition of influenza B/Ibaraki/2/85 virus sialidase after 10 mins by fluorometric assay; parameters: species or system Influenza B virus (B/Ibaraki/2/85)
Influenza A virus [4] = assay: Inhibition of influenza virus A/PR/8/34(H1N1) proliferation on MDCK cells at 12.5 ug/mL; type: functional, organism-based; settings: A/Puerto Rico/8/1934(H1N1)
[5] = tested on: Influenza A virus (A/Puerto Rico/8/1934(H1N1)); assay: Antiinfluenza virus activity in mouse infected with influenza virus A/PR/8/34(H1N1) assessed as survival rate at 0.5 mg/kg administered intranasally after 21 days; type: functional, BALB/c
Influenza A virus [6] = assay: Antiinfluenza virus activity in mouse infected with influenza virus A/PR/8/34(H1N1) assessed as survival rate at 0.5 mg/kg administered intranasally after 10 days; type: functional, A/Puerto Rico/8/1934(H1N1)

Row | SMILES | IC50 [1] [µg/mL] | Activity (MDCK) | IC50 [2] [µg/mL] | IC50 [3] [µg/mL] | Activity (Influenza A virus [4]) | Activity [5] [%] | Activity (Influenza A virus [6]) [%]
1 | COc1cc(O)c2c(=O)cc(-c3ccc(OC)c(-c4c(O)cc(O)c5c(=O)cc(-c6ccc(O)cc6)oc45)c3)oc2c1 [GINKGETIN] | 55 (≈ 97.1 µM) | Toxic | 9.78 (≈ 17.3 µM) | > 100 | – | – | –
2 | COC(=O)[C@@]1(Oc2ccc(-c3cc(=O)c4c(O)cc(O[C@]5(C(=O)OC)C[C@H](OC(C)=O)[C@@H](NC(C)=O)[C@H]([C@H](OC(C)=O)[C@@H](COC(C)=O)OC(C)=O)O5)c(-c5cc(-c6cc(=O)c7c(O)cc(OC)cc7o6)ccc5OC)c4o3)cc2)C[C@H](OC(C)=O)[C@@H](NC(C)=O)[C@H]([C@H](OC(C)=O)[C@@H](COC(C)=O)OC(C)=O)O1 (stereo in doubt; 7R) | – | – | 1.35 (≈ 0.892 µM) | – | – | – | –
3 | COc1c(O)cc(O)c2c(=O)cc(-c3ccc(O)cc3)oc12 [4'-HYDROXYWOGONIN] | 9.78 (≈ 32.6 µM) | – | 8.95 (≈ 29.8 µM) | 6.58 (≈ 21.9 µM) | – | – | –
4 | COC(=O)[C@@]1(Oc2cc(O)c3c(=O)cc(-c4ccc(O)cc4)oc3c2-c2cc(-c3cc(=O)c4c(O)cc(OC)cc4o3)ccc2OC)C[C@H](OC(C)=O)[C@@H](NC(C)=O)[C@H]([C@H](OC(C)=O)[C@@H](COC(C)=O)OC(C)=O)O1 (stereo in doubt; 6S) | > 100 | – | 1.1 (≈ 1.06 µM) | > 100 | – | – | –
5 | COc1cc(O)c2c(=O)cc(-c3ccc(OC)c(-c4c(O[C@]5(C(=O)O)C[C@H](O)[C@@H](NC(C)=O)[C@H]([C@H](O)[C@H](O)CO)O5)cc(O)c5c(=O)cc(-c6ccc(O[C@]7(C(=O)O)C[C@H](O)[C@@H](NC(C)=O)[C@H]([C@H](O)[C@H](O)CO)O7)cc6)oc45)c3)oc2c1 (stereo in doubt; 9R) | 6.61 (≈ 5.75 µM) | – | 6.57 (≈ 5.72 µM) | 9.05 (≈ 7.88 µM) | – | – | –
6 | COC(=O)[C@@]1(Oc2ccc(-c3cc(=O)c4c(O)cc(O[C@]5(C(=O)OC)C[C@H](OC(C)=O)[C@@H](NC(C)=O)[C@H]([C@H](OC(C)=O)[C@@H](COC(C)=O)OC(C)=O)O5)c(-c5cc(-c6cc(=O)c7c(O)cc(OC)cc7o6)ccc5OC)c4o3)cc2)C[C@H](OC(C)=O)[C@@H](NC(C)=O)[C@H]([C@H](OC(C)=O)[C@@H](COC(C)=O)OC(C)=O)O1 (stereo in doubt; 7S) | > 100 | Non-toxic | > 10 | > 100 | – | – | –
7 | COc1cc(O)c2c(=O)cc(-c3ccc(OC)c(-c4c(O[C@]5(C(=O)O)C[C@H](O)[C@@H](NC(C)=O)[C@H]([C@H](O)[C@H](O)CO)O5)cc(O)c5c(=O)cc(-c6ccc(O)cc6)oc45)c3)oc2c1 (stereo in doubt; 8S) [listing 1 of 2 here] | – | – | – | – | Active | – | –
8 | COc1cc(O)c2c(=O)cc(-c3ccc(OC)c(-c4c(O[C@]5(C(=O)O)C[C@H](O)[C@@H](NC(C)=O)[C@H]([C@H](O)[C@H](O)CO)O5)cc(O)c5c(=O)cc(-c6ccc(O)cc6)oc45)c3)oc2c1 (stereo in doubt; 8R) [listing 1 of 2 here] | 5.5 (≈ 6.41 µM) | – | 0.82 (≈ 0.956 µM) | 9.11 (≈ 10.6 µM) | – | 62.5 | 75
9 | COc1cc(O)c2c(=O)cc(-c3ccc(OC)c(-c4c(O[C@]5(C(=O)O)C[C@H](O)[C@@H](NC(C)=O)[C@H]([C@H](O)[C@H](O)CO)O5)cc(O)c5c(=O)cc(-c6ccc(O[C@]7(C(=O)O)C[C@H](O)[C@@H](NC(C)=O)[C@H]([C@H](O)[C@H](O)CO)O7)cc6)oc45)c3)oc2c1 (stereo in doubt; 9S) | 6.99 (≈ 6.08 µM) | Non-toxic | 0.94 (≈ 0.818 µM) | 9.34 (≈ 8.13 µM) | – | – | –
10 | COc1cc(O)c2c(=O)cc(-c3ccc(OC)c(-c4c(O[C@]5(C(=O)O)C[C@H](O)[C@@H](NC(C)=O)[C@H]([C@H](O)[C@H](O)CO)O5)cc(O)c5c(=O)cc(-c6ccc(O)cc6)oc45)c3)oc2c1 (stereo in doubt; 8R) [listing 2 of 2 here] | – | – | – | – | Active | – | –
11 | COC(=O)[C@@]1(Oc2cc(O)c3c(=O)cc(-c4ccc(O)cc4)oc3c2-c2cc(-c3cc(=O)c4c(O)cc(OC)cc4o3)ccc2OC)C[C@H](OC(C)=O)[C@@H](NC(C)=O)[C@H]([C@H](OC(C)=O)[C@@H](COC(C)=O)OC(C)=O)O1 (stereo in doubt; 6R) | 79.2 (≈ 76.2 µM) | Non-toxic | > 10 | – | – | – | –
12 | COc1cc(O)c2c(=O)cc(-c3ccc(OC)c(-c4c(O[C@]5(C(=O)O)C[C@H](O)[C@@H](NC(C)=O)[C@H]([C@H](O)[C@H](O)CO)O5)cc(O)c5c(=O)cc(-c6ccc(O)cc6)oc45)c3)oc2c1 (stereo in doubt; 8S) [listing 2 of 2 here] | 6.35 (≈ 7.4 µM) | Non-toxic | 0.99 (≈ 1.15 µM) | 8.64 (≈ 10.1 µM) | – | 56 | 78
